Here are results for 11 compounds from patent US5942495A, “Antibiotics” (BTG International Limited, priority 1997, dated 1999).

In brackets after ≈: the same amount, converted by molar mass. Read-outs that look alike come from different tables or passages of the source.

In data set [1] the test system is Candida albicans ATCC 262778. Nature of the data set: In vitro antifungal activity (growth inhibition, turbidimetric, liquid Sabouraud medium). It is filed as cell-based. As to conditions: for IC50 (concentration inhibiting growth of fungi by 50%): 24 hours at 30° C., liquid Sabouraud medium. Here is the method:
The antifungal activity of compounds was determined following the standard for polyene macrolide procedure. The liquid Sabouraud medium was inoculated with 10^4 cells/ml of test organism Candida albicans ATCC 262778 and incubated for 24 hours at 30° C. with the tested antibiotic (serial dilutions). Amphotericin B was used as the reference. Compounds were dissolved in DMF and suitable amounts of the solutions were added to the medium. Turbidimetric method (660 nm) was applied to determine the degree of growth inhibition. The concentration of antibiotic at which the growth of fungi was inhibited by 50% was determined from the dose response curve. The obtained IC50 value characterized antifungal activity of the compound.

The nature of data set [2]: In vitro toxicity (haemolysis of human erythrocytes). It is filed as cell-based. The conditions noted are these: human, erythrocytes, 30 minutes at 37° C., read-out: EH50 (concentration at which 50% of hemolysis occurred). The method, then:
(§1) Toxicity of compounds in vitro against animal cells was determined using standard for polyene macrolides procedure, by the determination of the degree of haemolysis of human erythrocytes. Human erythrocytes isolated from fresh, citrated human blood were washed twice with cold saline. The cells were diluted 250 times with saline and equilibrated for 30 minutes at 37° C. Samples of erythrocytes were incubated with various concentrations of antibiotics (the base solution in DMF) for 30 minutes at 37° C. After centrifugation the lysis of erythrocytes was assessed by determination of the haemoglobin released to the solution. Optical density of the supernatant was measured at […]. The results were expressed by EH50 value, as concentration of antibiotic at which 50% of hemolysis occurred. The values of EH50 were read from a curve relating the degree of hemolysis with antibiotic dose.

A further data set is described as follows: Solubility. In kind it is physicochemical.
For another data set, the system named is human erythrocytes. Nature of the data set: In vitro toxicity (haemolysis of human erythrocytes). In kind it is cell-based. The conditions noted are these: 30 minutes at 37° C. Here is the method:
as §1

Another data set relates to Candida albicans. As to the kind of experiment: Chemotherapeutic efficacy, systemic murine candidose model. It is filed as in vivo. As to conditions: 840 h, intravenous, twice a day, 5 days, female Swiss Webster mice.
The subject of the next data set is Balb/c mice. As to the kind of experiment: In vivo toxicity, maximum tolerated dose (MTD). The conditions noted are these: intraperitoneal 100 mg/kg for 5 days, 20 days of observation. The method, then: (§2) In vivo toxicity was determined for methyl ester of N-methyl-N-D-fructosylamphotericin B L-aspartate as the maximum tolerated dose (MTD), and as the acute toxicity (LD50). To determine MTD dose the compound was dissolved in 5% solution of glucose, and administered intravenously and intraperitonealy to Balb/c mice in single and multiple doses.

The nature of data set [3]: In vivo toxicity, maximum tolerated dose (MTD). As to conditions: mouse, in vivo, Balb/c mice. The method, then:
as §2

A short description of a further data set: Acute toxicity (LD50). As to conditions: mouse, in vivo, iv.
Data set [4] deals with Swiss Webster female mice. As to the kind of experiment: Serum indexes after acute toxicity study. It is filed as in vivo. The conditions noted are these: in comparison with the control (5% glucose), after 7 days.
Method: (§3) Various doses of the tested compound, and for comparison, amphotericin B in form of Fungizone, dissolved in 5% glucose were given intravenously to the animals. The administered volume of the solution was 0.5 ml. 0.5 ml of 5% solution of glucose was administered to mice as a control. Every dose of both preparations was administered to 5 mice. […] Next, the animals were killed, and some serum indexes were determined.

Method for Acute toxicity (LD50): as §3

Broadly, the solubility is the concentration that dissolves in the medium under given conditions. With `COC(=O)[C@H]1[C@@H]2C[C@@H](O[C@@H]3O[C@H](C)[C@@H](O)[C@H](N(C)CC4(O)OC[C@@H](O)[C@@H](O)[C@@H]4O)[C@@H]3O)/C=C/C=C/C=C/C=C/C=C/C=C/C=C/[C@H](C)[C@@H](O)[C@@H](C)[C@H](C)OC(=O)C[C@H](O)C[C@H](O)CC[C@@H](O)[C@H](O)C[C@H](O)C[C@](O)(C[C@@H]1O)O2` (single isomer, unassigned) [Example I, N-methyl-N-D-fructosylamphotericin B methyl ester], the “IC50 (concentration inhibiting growth of fungi by 50%)” value in [1] was 0.12 µg/mL. In addition, the HC50 at 0.5 h in data set [2] is > 350 µg/mL. For the same compound, the solubility in “Solubility” (under conditions of the haemolysis experiment, read-out: solubility limit (insoluble above)) is ≤ 350 µg/mL.
For the compound `COC(=O)[C@H]1[C@@H]2C[C@@H](O[C@@H]3O[C@H](C)[C@@H](O)[C@H](N(C)CC4(O)OC[C@@H](O)[C@@H](O)[C@@H]4O)[C@@H]3O)/C=C/C=C/C=C/C=C/C=C/C=C/C=C/[C@H](C)[C@@H](O)[C@@H](C)[C@H](C)OC(=O)C[C@H](O)C[C@H](O)CC[C@@H](O)[C@H](O)C[C@H](O)C[C@](O)(C[C@@H]1O)O2` (single isomer, unassigned) [Example VIII, N-methyl-N-D-fructosylamphotericin B methyl ester], in data set [1], the “IC50 (concentration inhibiting growth of fungi by 50%)” value came to 0.42 µg/mL. Moreover, the “EH50 (concentration at which 50% of hemolysis occurred)” value in the data set on human erythrocytes (30 min) is reported as “above 200 μg/ml”.
A word on the ED50: it is the dose that gives a 50% effect, or the effect in half of the subjects. For orientation: LD50 means the dose at which mortality reaches 50%. As for `COC(=O)[C@H]1[C@@H]2C[C@@H](O[C@@H]3O[C@H](C)[C@@H](O)[C@H](N(C)CC4(O)OC[C@@H](O)[C@@H](O)[C@@H]4O)[C@@H]3O)/C=C/C=C/C=C/C=C/C=C/C=C/C=C/[C@H](C)[C@@H](O)[C@@H](C)[C@H](C)OC(=O)C[C@H](O)C[C@H](O)CC[C@@H](O)[C@H](O)C[C@H](O)C[C@](O)(C[C@@H]1O)O2` (stereo partly drawn) [Example X, methyl ester of N-methyl-N-D-fructosylamphotericin B L-aspartate], the IC50 in [1] (ATCC262778, 24 h, read-out: IC50 (concentration inhibiting growth of fungi by 50%)) was 0.125 µg/mL (≈ 0.112 µM). For the same compound, the “EH50 (concentration at which 50% of hemolysis occurred)” value in the data set with human erythrocytes (30 min) is on record as “above 350 μg/ml”. Besides, the ED50 came to 2.3 mg/kg in the data set on Candida albicans (5 weeks observation, read-out: ED50 based on the survival) and 6 mg/kg in the data set with Candida albicans (clearance of Candida from kidneys, read-out: ED50 based on the kidneys clearance). In addition, in the data set with Balb/c mice, the toxic effects result was “toxic effects were not observed”. Further, the MTD in [3] (ip, intraperitoneal, for 5 days, read-out: maximum multiple tolerated dose) was > 100 mg/kg; in data set [3] (ip, intraperitoneal, single dose, in 5% glucose, read-out: maximum single tolerated dose (MTD)) it was > 200 mg/kg; in [3] (iv, single dose, in 5% glucose, read-out: maximum single tolerated dose (MTD)) it was 100 mg/kg. Also, in the data set “Acute toxicity (LD50)”, the LD50 at 168 h was found to be 400 mg/kg. Besides, in data set [4], the “level of aspartate aminotransferase” value is given as “No increased level”. In [4], the level of creatinine entry is recorded as “No increased level”. Also, the “solubility in N,N-dimethylformamide, dimethylsulphoxide and 5% water solution of glucose” value in “Solubility” (DMF, DMSO, 5% aqueous glucose) was “soluble”. Besides, the solubility in water entry in the data set “Solubility” (water) is given as “very well soluble in water”.
With `C[C@@H]1[C@H](O)[C@@H](C)/C=C/C=C/C=C/C=C/C=C/C=C/C=C/[C@H](O[C@@H]2O[C@H](C)[C@@H](O)[C@H](N)[C@@H]2O)C[C@@H]2O[C@](O)(C[C@@H](O)C[C@@H](O)[C@H](O)CC[C@@H](O)C[C@@H](O)CC(=O)O[C@H]1C)C[C@H](O)[C@H]2C(=O)O` [amphotericin B, reference compound], in [2], the HC50 at 0.5 h was 1.5 µg/mL.
For “N-methyl-N-D-fructosylamphotericin B methyl ester [Example IX]”, in [1], the “IC50 (concentration inhibiting growth of fungi by 50%)” value came out at 6.0 µg/mL.
As to “N-methyl-N-D-fructosylamphotericin B methyl ester [Example VII]”, the “IC50 (concentration inhibiting growth of fungi by 50%)” value in data set [1] was determined as 0.42 µg/mL.
Turning to “N-methyl-N-D-fructosylcandidin D methyl ester [Example V]”, in data set [1], the “IC50 (concentration inhibiting growth of fungi by 50%)” value was found to be 0.01 µg/mL. In the data set on human erythrocytes, the “EH50 (concentration at which 50% of hemolysis occurred)” value is recorded as “≈ 180 μg/ml”.
Turning to “N-methyl-N-D-fructosylcandidin methyl ester [Example II]”, in [1], the “IC50 (concentration inhibiting growth of fungi by 50%)” value was 0.75 µg/mL. Also, the “EH50 (concentration at which 50% of hemolysis occurred)” value in the data set with human erythrocytes is on record as “above 300 μg/ml”.
Consider “N-methyl-N-D-fructosylnystatin methyl ester [Example III]”, for which the “IC50 (concentration inhibiting growth of fungi by 50%)” value in data set [1] is 6.8 µg/mL. In the data set on human erythrocytes, the “EH50 (concentration at which 50% of hemolysis occurred)” value was “above 300 μg/ml”.
Regarding “N-methyl-N-D-fructosylvacidin methyl ester [Example IV]”, in [1], the “IC50 (concentration inhibiting growth of fungi by 50%)” value was 0.01 µg/mL. The “EH50 (concentration at which 50% of hemolysis occurred)” value with human erythrocytes is 170 µg/mL.
Regarding “N-methyl-N-fructosyltrychomycin methyl ester [Example VI]”, in data set [1], the “IC50 (concentration inhibiting growth of fungi by 50%)” value amounted to 0.013 µg/mL. The “EH50 (concentration at which 50% of hemolysis occurred)” value with human erythrocytes is on record as “≈ 165 μg/ml”.
